Read-outs that look alike come from different tables or passages of the source.
Experiments:
Type in all cases: cell-based
human M1 receptor = molecular target: T1, human M1 receptor (Homo sapiens, UniProt P11229); test: In vitro functional assay of muscarinic acetylcholine receptor activity (aequorin calcium flux, antagonist mode vs EC80 acetylcholine), M1
T1 sequence (P11229 1-460): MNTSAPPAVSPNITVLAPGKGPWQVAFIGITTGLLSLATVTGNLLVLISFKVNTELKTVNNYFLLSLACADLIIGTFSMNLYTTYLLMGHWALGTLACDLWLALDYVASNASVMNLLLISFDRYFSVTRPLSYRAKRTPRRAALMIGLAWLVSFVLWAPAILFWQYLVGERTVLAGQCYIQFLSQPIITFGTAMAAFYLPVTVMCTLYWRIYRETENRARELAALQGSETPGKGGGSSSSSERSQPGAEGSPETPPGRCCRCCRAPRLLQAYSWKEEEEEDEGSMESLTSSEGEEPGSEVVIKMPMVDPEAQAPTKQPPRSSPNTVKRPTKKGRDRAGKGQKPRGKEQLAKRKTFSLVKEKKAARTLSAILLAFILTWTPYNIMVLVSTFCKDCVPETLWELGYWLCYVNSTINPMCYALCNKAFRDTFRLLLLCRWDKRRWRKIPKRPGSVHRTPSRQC
Outline: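 Antagonism at M1 was measured as a concentration-dependent reduction of the EC80 acetylcholine-evoked aequorin luminescence, from which IC50 was derived. Human M1 CHO-K1 aequorin cells were first loaded with 5 uM coelenterazine h for 4 h and exposed to compound for 30 min at room temperature.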

M3 = M3 (Homo sapiens, UniProt P20309); test: In vitro functional assay of muscarinic acetylcholine receptor activity, M3; details: antagonist IC50 at M3; read-out: M3 IC50
Chain of M3 (P20309 whole entry): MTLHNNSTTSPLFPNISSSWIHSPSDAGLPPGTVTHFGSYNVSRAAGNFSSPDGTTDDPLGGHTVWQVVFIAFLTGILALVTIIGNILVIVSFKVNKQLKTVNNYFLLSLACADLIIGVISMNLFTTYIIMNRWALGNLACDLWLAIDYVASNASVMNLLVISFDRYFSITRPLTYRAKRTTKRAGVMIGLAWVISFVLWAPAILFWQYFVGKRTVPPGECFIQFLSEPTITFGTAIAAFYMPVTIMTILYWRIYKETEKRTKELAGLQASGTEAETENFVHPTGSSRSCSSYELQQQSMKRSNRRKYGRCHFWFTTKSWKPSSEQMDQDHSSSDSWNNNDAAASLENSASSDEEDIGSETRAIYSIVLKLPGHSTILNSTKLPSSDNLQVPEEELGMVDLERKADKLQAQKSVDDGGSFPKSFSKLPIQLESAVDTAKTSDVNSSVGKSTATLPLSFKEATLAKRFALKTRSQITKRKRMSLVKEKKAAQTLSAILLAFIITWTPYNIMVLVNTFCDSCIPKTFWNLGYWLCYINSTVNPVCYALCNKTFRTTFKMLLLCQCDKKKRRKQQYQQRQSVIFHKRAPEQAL

M2 = molecular target: T2, M2 (Homo sapiens, UniProt P08172); test: In vitro functional assay of muscarinic acetylcholine receptor activity, M2; details: antagonist IC50 at M2; read-out: M2 IC50
T2 sequence (P08172 1-466): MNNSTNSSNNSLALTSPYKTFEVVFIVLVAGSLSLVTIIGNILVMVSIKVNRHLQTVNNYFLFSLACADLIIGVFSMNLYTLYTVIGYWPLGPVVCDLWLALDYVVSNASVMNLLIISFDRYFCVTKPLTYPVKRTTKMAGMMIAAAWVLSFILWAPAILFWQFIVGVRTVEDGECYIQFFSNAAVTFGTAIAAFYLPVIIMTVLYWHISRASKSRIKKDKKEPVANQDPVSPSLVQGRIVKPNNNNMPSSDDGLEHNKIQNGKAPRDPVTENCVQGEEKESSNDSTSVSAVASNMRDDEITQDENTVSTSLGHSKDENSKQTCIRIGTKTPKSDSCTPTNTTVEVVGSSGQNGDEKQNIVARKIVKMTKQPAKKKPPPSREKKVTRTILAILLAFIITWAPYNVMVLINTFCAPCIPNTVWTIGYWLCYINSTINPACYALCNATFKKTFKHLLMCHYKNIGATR

[1] = CHO-K1 cells stably expressing human M1 receptor with Aequorin, decrease in EC80 acetylcholine response, read-out: M1 IC50

Cc1nc2cccc(CCCC(=O)N3CCN(c4ccncc4F)CC3)c2o1 [Example 73, 1-(4-(3-fluoropyridin-4-yl)piperazin-1-yl)-4-(2-methylbenzo[d]oxazol-7-yl)butan-1-one]
IC50 (human M1 receptor; [1]): 0.1 to 1 µM
IC50 (M3): > 10 µM
IC50 (M2): 1 to 10 µM

COc1cnc2cccc(CCCC(=O)N3CCN(c4ccncc4F)CC3)c2c1 [Example 74, 1-(4-(3-fluoropyridin-4-yl)piperazin-1-yl)-4-(3-methoxyquinolin-5-yl)butan-1-one]
IC50 (human M1 receptor; [1]): 1 to 10 µM
IC50 (M3): > 10 µM
IC50 (M2): > 10 µM

O=C(COCc1cccc2nccn12)N1C[C@H]2CC[C@@H](C1)N2c1ccncc1F [Example 75, 1-((1R,5S)-8-(3-fluoropyridin-4-yl)-3,8-diazabicyclo[3.2.1]octan-3-yl)-2-(imidazol[1,2-a]pyridin-5-ylmethoxy)ethan-1-one]
IC50 (human M1 receptor; [1]): 1 to 10 µM
IC50 (M3): > 10 µM
IC50 (M2): 1 to 10 µM

COc1cnc2cccc(COCCC(=O)N3C[C@H]4CC[C@@H](C3)N4c3ccncc3F)c2c1 [Example 76, 1-((1R,5S)-8-(3-fluoropyridin-4-yl)-3,8-diazabicyclo[3.2.1]octan-3-yl)-3-((3-methoxyquinolin-5-yl)methoxy)propan-1-one]
IC50 (human M1 receptor): < 0.1 µM
IC50 (M3): 1 to 10 µM
IC50 (M2): 1 to 10 µM

C[C@@H]1CN(c2ccncc2Cl)CCN1C(=O)CCCc1cccc2ncccc12 [Example 77, (R)-1-(4-(3-chloropyridin-4-yl)-2-methylpiperazin-1-yl)-4-(quinolin-5-yl)butan-1-one]
IC50 (human M1 receptor; [1]): < 0.1 µM
IC50 (M3): 1 to 10 µM
IC50 (M2): 1 to 10 µM

Cc1ccncc1N1CCN(C(=O)CCCc2cccc3ncccc23)[C@H](C)C1 [Example 78, (R)-1-(2-methyl-4-(4-methylpyridin-3-yl)piperazin-1-yl)-4-(quinolin-5-yl)butan-1-one]
IC50 (human M1 receptor; [1]): < 0.1 µM
IC50 (M3): 1 to 10 µM
IC50 (M2): 1 to 10 µM

Cc1cc(Cl)cnc1N1CCN(C(=O)CCCc2cccc3ncccc23)[C@H](C)C1 [Example 79, (R)-1-(4-(5-chloro-3-methylpyridin-2-yl)-2-methylpiperazin-1-yl)-4-(quinolin-5-yl)butan-1-one]
IC50 (human M1 receptor; [1]): < 0.1 µM
IC50 (M3): 0.1 to 1 µM
IC50 (M2): < 0.1 µM

Cc1cc(F)cnc1N1CCN(C(=O)CCCc2cccc3ncsc23)[C@@H](C)C1 [Example 81, (S)-4-(benzo[d]thiazol-7-yl)-1-(4-(5-fluoro-3-methylpyridin-2-yl)-2-methylpiperazin-1-yl)butan-1-one]
IC50 (human M1 receptor; [1]): < 0.1 µM
IC50 (M3): 1 to 10 µM
IC50 (M2): 0.1 to 1 µM

Cc1cc(F)cnc1N1CCN(C(=O)CCCc2cccc3ncncc23)[C@@H](C)C1 [Example 82, (S)-1-(4-(5-fluoro-3-methylpyridin-2-yl)-2-methylpiperazin-1-yl)-4-(quinazolin-5-yl)butan-1-one]
IC50 (human M1 receptor; [1]): < 0.1 µM
IC50 (M3): 1 to 10 µM
IC50 (M2): 1 to 10 µM

Cc1cc(F)cnc1N1CCN(C(=O)CCCc2cccc3nccn23)[C@@H](C)C1 [Example 84, (S)-1-(4-(5-fluoro-3-methylpyridin-2-yl)-2-methylpiperazin-1-yl)-4-(imidazo[1,2-a]pyridin-5-yl)butan-1-one]
IC50 (human M1 receptor; [1]): 1 to 10 µM
IC50 (M3): > 10 µM
IC50 (M2): > 10 µM

O=C(CCOCc1cccc2ncsc12)N1C[C@H]2CC[C@@H](C1)N2c1ccncc1F [Example 85, 3-(benzo[d]thiazol-7-ylmethoxy)-1-((1R,5S)-8-(3-fluoropyridin-4-yl)-3,8-diazabicyclo[3.2.1]octan-3-yl)propan-1-one]
IC50 (human M1 receptor): < 0.1 µM
IC50 (M3): 1 to 10 µM
IC50 (M2): 1 to 10 µM

O=C(COCc1cccc2ncsc12)N1C[C@H]2CC[C@@H](C1)N2c1ccncc1F [Example 86, 2-(benzo[d]thiazol-7-ylmethoxy)-1-((1R,5S)-8-(3-fluoropyridin-4-yl)-3,8-diazabicyclo[3.2.1]octan-3-yl)ethan-1-one]
IC50 (human M1 receptor; [1]): 1 to 10 µM
IC50 (M3): > 10 µM
IC50 (M2): 1 to 10 µM

Cc1cc(F)cnc1N1CCN(C(=O)COCc2cccc3ncccc23)[C@@H](C)C1 [Example 87, (S)-1-(4-(5-fluoro-3-methylpyridin-2-yl)-2-methylpiperazin-1-yl)-2-(quinolin-5-ylmethoxy)ethan-1-one]
IC50 (human M1 receptor; [1]): 1 to 10 µM
IC50 (M3): 1 to 10 µM
IC50 (M2): 1 to 10 µM

Cc1cc(F)cnc1N1CCN(C(=O)COCc2cccc3ncsc23)[C@@H](C)C1 [Example 88, (S)-2-(benzo[d]thiazol-7-ylmethoxy)-1-(4-(5-fluoro-3-methylpyridin-2-yl)-2-methylpiperazin-1-yl)ethan-1-one]
IC50 (human M1 receptor; [1]): 1 to 10 µM
IC50 (M3): > 10 µM
IC50 (M2): 1 to 10 µM

Cc1cc(F)cnc1N1CCN(C(=O)CNCc2cccc3ncsc23)[C@@H](C)C1 [Example 89, (S)-2-((benzo[d]thiazol-7-ylmethyl)amino)-1-(4-(5-fluoro-3-methylpyridin-2-yl)-2-methylpiperazin-1-yl)ethan-1-one]
IC50 (human M1 receptor; [1]): 1 to 10 µM
IC50 (M3): > 10 µM
IC50 (M2): > 10 µM

C[C@H]1CN(c2ncc(F)cc2C#N)CCN1C(=O)CCCc1cccc2ncccc12 [Example 90, (S)-5-fluoro-2-(3-methyl-4-(4-(quinolin-5-yl)butanoyl)piperazin-1-yl)nicotinonitrile]
IC50 (human M1 receptor; [1]): > 10 µM
IC50 (M3): > 10 µM
IC50 (M2): 1 to 10 µM

C[C@H]1CN(c2ncc(F)cc2F)CCN1C(=O)CCCc1cccc2ncccc12 [Example 91, (S)-1-(4-(3,5-difluoropyridin-2-yl)-2-methylpiperazin-1-yl)-4-(quinolin-5-yl)butan-1-one]
IC50 (human M1 receptor; [1]): 0.1 to 1 µM
IC50 (M3): 1 to 10 µM
IC50 (M2): 1 to 10 µM

COc1cnccc1N1CCN(C(=O)CCCc2cccc3ncccc23)[C@@H](C)C1 [Example 92, (S)-1-(4-(3-methoxypyridin-4-yl)-2-methylpiperazin-1-yl)-4-(quinolin-5-yl)butan-1-one]
IC50 (human M1 receptor; [1]): < 0.1 µM
IC50 (M3): 1 to 10 µM
IC50 (M2): 0.1 to 1 µM

Cc1ncccc1N1CCN(C(=O)CCCc2cccc3ncccc23)[C@@H](C)C1 [Example 93, (S)-1-(2-methyl-4-(2-methylpyridin-3-yl)piperazin-1-yl)-4-(quinolin-5-yl)butan-1-one]
IC50 (human M1 receptor; [1]): > 10 µM
IC50 (M3): > 10 µM
IC50 (M2): > 10 µM

Cc1cc(F)cnc1N1CCN(C(=O)CCCc2cccc3ncc(CO)cc23)[C@@H](C)C1 [Example 94, (S)-1-(4-(5-fluoro-3-methylpyridin-2-yl)-2-methylpiperazin-1-yl)-4-(3-(hydroxymethyl)quinolin-5-yl)butan-1-one]
IC50 (human M1 receptor; [1]): 0.1 to 1 µM
IC50 (M3): 1 to 10 µM
IC50 (M2): 0.1 to 1 µM

O=C(CCS(=O)(=O)c1cccc2ncsc12)N1C[C@H]2CC[C@@H](C1)N2c1ccncc1F [Example 95, 3-(benzo[d]thiazol-7-ylsulfonyl)-1-((1R,5S)-8-(3-fluoropyridin-4-yl)-3,8-diazabicyclo[3.2.1]octan-3-yl)propan-1-one]
IC50 (human M1 receptor): < 0.1 µM
IC50 (M3): 0.1 to 1 µM
IC50 (M2): < 0.1 µM

Cc1cc(F)cnc1N1CCN(C(=O)CCS(=O)(=O)c2cccc3ncccc23)[C@@H](C)C1 [Example 96, (S)-1-(4-(5-fluoro-3-methylpyridin-2-yl)-2-methylpiperazin-1-yl)-3-(quinolin-5-ylsulfonyl)propan-1-one]
IC50 (human M1 receptor; [1]): 0.1 to 1 µM
IC50 (M3): > 10 µM
IC50 (M2): 1 to 10 µM

Cc1cc(F)cnc1N1CCN(C(=O)CCCS(=O)(=O)c2cccc3ncsc23)[C@@H](C)C1 [Example 97, (S)-4-(benzo[d]thiazol-7-ylsulfonyl)-1-(4-(5-fluoro-3-methylpyridin-2-yl)-2-methylpiperazin-1-yl)butan-1-one]
IC50 (human M1 receptor; [1]): 1 to 10 µM
IC50 (M3): 1 to 10 µM
IC50 (M2): 1 to 10 µM

Cc1nc2cccc(S(=O)(=O)CCCC(=O)N3CCN(c4ncc(F)cc4C)C[C@@H]3C)c2o1 [Example 98, (S)-1-(4-(5-fluoro-3-methylpyridin-2-yl)-2-methylpiperazin-1-yl)-4-((2-methylbenzo[d]oxazol-7-yl)sulfonyl)butan-1-one]
IC50 (human M1 receptor; [1]): 1 to 10 µM
IC50 (M3): > 10 µM
IC50 (M2): 1 to 10 µM

O=C(CCS(=O)(=O)c1cccc2ncsc12)N1CCN(c2ccnc(C(F)(F)F)c2)CC1 [Example 99, 3-(benzo[d]thiazol-7-ylsulfonyl)-1-(4-(2-(trifluoromethyl)pyridin-4-yl)piperazin-1-yl)propan-1-one]
IC50 (human M1 receptor; [1]): 1 to 10 µM
IC50 (M3): > 10 µM
IC50 (M2): 1 to 10 µM

Reference: patent US11512090B2, “Muscarinic acetylcholine M1 receptor antagonists” (PIPELINE THERAPEUTICS, INC., priority 2018, dated 2022)
